The text below walks through data of patent US20190358371A1, “HEMOSTATIC DEVICES AND METHODS OF USE” (priority 2016, published 2019).

A short description of data set [1]: stability of rifampin and minocycline in PBS with and without tranexamic acid (Example 14). It counts as physicochemical. To be noted: room temperature (about 23 C) and 37 C.
Data set [2] can be described thus: in vitro elution of rifampin and minocycline from p22-27.5 polymers with TXA in release media (Example 15). The format is physicochemical. The conditions noted are these: PBS pH 7.4, TXA 0, 0.05 or 5 mg/mL, over 25 hours. As for the experimental part: B1=PBS pH 7.4; B2=PBS, pH 7.4+TXA (0.05 mg/mL); B3=PBS, pH 7.4+TXA (5 mg/mL).
For data set [3] the following is noted: given preoperatively; cited from earlier work.
The next data set deals with blood. Put plainly: time required to induce blood clotting in vitro (Examples 17 and 18). The format is biochemical. The method, then: Tests were conducted to compare the time required to induce blood clotting in vitro when different amounts of hemostatic agent is administered in the presence of TYRX (degradable mesh coated with P22-27.5 containing rifampin and minocycline), as shown in FIG. 35.
Tests were conducted to compare the time required for different hemostatic agents to induce blood clotting in vitro versus the time required to induce blood clotting in vitro when no hemostatic agent is administered. In particular, the time required to induce blood clotting was plotted for blood alone, TYRX), Surgicel, TYRX with 1.6 mg of TXA, 1.2 mg of TXA alone and TYRX with 200 mg of TXA. In this example, TYRX refers to a Glycoprene mesh that is coated with P22-27.5 (a polymer in the P22-X family) containing Rifampin and Minocycline.

For `CO[C@H]1/C=C/O[C@@]2(C)Oc3c(C)c(O)c4c(O)c(c(/C=N/N5CCN(C)CC5)c(O)c4c3C2=O)NC(=O)/C(C)=C\C=C\[C@H](C)[C@H](O)[C@@H](C)[C@@H](O)[C@@H](C)[C@H](OC(C)=O)[C@@H]1C` [rifampin], the “percentage area in mixtures of rifampin and minocycline in PBS with versus without tranexamic acid” value in data set [1] is “substantially the same”. Besides, the “elution rate from p22-27.5 polymer, effect of TXA in the release media” value in data set [2] is reported as “not affected”.

As to `NC[C@H]1CC[C@H](C(=O)O)CC1` [tranexamic acid], the “time to reach plasma concentrations” value in data set [3] is 5 to 15 min. In addition, in the data set with blood (1.2 mg of TXA alone), the “time required to induce blood clotting in vitro” value was “about 19 minutes”. In the data set on blood (1.6 mg TXA vs 200 mg of TXA, in the presence of TYRX), the “Clotting time with higher amounts of TXA” value is “increased”.
